Assay results: PMC9375364, “Fabrication of multifunctional metal–organic frameworks nanoparticles via layer-by-layer self-assembly to efficiently discover PSD95-nNOS uncouplers for stroke treatment” (Journal of Nanobiotechnology, 2022)

biological target: T1, PSD95-nNOS (GFP-PSD95 coupled to His-nNOS on magnetic Fe-MOF) (Rattus norvegicus (nNOS); Homo sapiens (PSD95), UniProt P29476+P78352); experiment: uncoupling of GFP-PSD95 from His-nNOS/Fe-MOF, magnetic separation, fluorescence; type: binding; conditions: not given
T1 construct: gene Nos1; two-species complex; myc-His-nNOS (pcDNA3.1) and GFP-PSD95-Flag (pcDNA3.1), total synthesized genes, expressed in HEK293T, from RIPA lysates; His-nNOS immobilized on magnetic Fe-MOF, then GFP-PSD95 coupled
Excerpt: uncoupling of GFP-PSD95 from His-nNOS/Fe-MOF, magnetic separation, fluorescence on PSD95-nNOS (GFP-PSD95 coupled to His-nNOS on magnetic Fe-MOF)

T1 sequence (P29476 whole entry): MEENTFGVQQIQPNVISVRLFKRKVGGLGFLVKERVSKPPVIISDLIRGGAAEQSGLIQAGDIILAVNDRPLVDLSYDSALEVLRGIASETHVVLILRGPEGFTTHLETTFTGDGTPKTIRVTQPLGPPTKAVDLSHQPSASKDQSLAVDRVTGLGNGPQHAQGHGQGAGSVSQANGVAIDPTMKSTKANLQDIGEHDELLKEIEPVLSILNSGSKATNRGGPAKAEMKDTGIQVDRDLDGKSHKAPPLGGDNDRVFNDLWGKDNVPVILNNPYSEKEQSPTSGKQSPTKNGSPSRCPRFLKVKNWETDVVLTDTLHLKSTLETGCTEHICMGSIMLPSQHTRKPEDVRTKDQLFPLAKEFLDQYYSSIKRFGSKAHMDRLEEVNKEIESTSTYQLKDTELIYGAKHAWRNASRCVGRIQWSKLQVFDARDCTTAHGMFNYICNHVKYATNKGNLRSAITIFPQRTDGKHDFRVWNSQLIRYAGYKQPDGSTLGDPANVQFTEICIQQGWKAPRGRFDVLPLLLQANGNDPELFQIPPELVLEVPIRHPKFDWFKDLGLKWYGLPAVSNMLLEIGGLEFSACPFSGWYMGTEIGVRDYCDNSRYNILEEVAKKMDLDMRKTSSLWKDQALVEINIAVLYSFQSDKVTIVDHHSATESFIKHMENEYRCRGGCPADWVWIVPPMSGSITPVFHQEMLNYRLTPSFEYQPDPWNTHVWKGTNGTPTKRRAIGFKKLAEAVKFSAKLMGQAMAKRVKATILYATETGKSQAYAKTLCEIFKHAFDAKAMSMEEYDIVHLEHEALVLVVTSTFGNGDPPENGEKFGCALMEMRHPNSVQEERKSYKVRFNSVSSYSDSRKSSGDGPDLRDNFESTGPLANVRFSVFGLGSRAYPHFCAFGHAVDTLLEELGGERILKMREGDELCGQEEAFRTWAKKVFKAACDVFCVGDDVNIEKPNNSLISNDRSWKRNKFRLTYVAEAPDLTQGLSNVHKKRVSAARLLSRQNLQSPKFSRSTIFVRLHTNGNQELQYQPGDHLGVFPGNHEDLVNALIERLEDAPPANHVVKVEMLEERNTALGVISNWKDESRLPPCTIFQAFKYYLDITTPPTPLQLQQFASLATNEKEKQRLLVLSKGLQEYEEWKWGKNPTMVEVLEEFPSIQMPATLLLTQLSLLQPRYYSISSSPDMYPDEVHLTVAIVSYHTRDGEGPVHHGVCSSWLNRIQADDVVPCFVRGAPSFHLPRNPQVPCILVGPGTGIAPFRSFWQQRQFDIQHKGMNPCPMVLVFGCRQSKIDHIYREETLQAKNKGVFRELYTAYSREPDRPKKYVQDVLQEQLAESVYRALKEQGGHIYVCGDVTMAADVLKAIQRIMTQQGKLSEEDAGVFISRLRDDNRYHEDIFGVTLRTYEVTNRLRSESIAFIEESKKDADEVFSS
T1 sequence (P78352 whole entry): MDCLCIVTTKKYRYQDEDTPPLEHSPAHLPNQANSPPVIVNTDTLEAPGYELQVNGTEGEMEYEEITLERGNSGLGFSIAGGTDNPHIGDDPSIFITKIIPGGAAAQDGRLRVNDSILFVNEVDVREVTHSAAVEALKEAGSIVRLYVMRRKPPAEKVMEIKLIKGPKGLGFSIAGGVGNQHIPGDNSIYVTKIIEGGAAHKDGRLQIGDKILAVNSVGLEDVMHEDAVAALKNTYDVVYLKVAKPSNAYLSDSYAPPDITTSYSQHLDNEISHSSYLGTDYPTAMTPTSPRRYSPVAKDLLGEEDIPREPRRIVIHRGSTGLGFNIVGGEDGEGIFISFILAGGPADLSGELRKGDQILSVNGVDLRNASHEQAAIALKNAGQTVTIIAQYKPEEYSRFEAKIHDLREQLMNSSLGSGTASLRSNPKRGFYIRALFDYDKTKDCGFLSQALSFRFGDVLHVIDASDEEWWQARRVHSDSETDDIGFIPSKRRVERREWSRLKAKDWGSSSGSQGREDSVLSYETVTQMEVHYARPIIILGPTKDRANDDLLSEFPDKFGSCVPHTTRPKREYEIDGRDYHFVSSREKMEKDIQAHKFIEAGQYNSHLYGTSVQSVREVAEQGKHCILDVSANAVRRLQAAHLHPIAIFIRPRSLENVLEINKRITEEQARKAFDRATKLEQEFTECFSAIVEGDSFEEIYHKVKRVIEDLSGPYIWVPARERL

For `O=C(O)c1ccc(NCc2cc(Cl)cc(Cl)c2O)cc1O` [ZL006, 4-(3,5-Dichloro-2-hydroxy-benzylamino)-2-hydroxybenzoic acid, reference compound], which IC50 is on record?
The IC50 was 1800 ± 151 µM.

`O=C(O)[C@H]1O[C@@H](Oc2cc3oc(-c4ccccc4)cc(=O)c3c(O)c2O)[C@H](O)[C@@H](O)[C@@H]1O` [compound 1, Baicalin] was tested. Which IC50 did it give?
Its IC50 is 104 ± 1 µM.

For `O=c1cc(-c2ccccc2)oc2cc(O)c(O)c(O)c12` [compound 2, Baicalein], which IC50 is on record?
The IC50 was 144 ± 22 µM.

How did the IC50 turn out when `COc1cc(/C=C/c2cc(O)cc(O)c2)ccc1O` [compound 6, Isorhapontigenin] was run?
Its IC50 is over 1800 µM.

With `COc1cc2c[n+](C)c3c4cc5c(cc4ccc3c2cc1OC)OCO5` [compound 7, Nitidine chloride] as the compound, how does the IC50 read?
Its IC50 is over 1800 µM.

`COc1ccc2c(c[n+](C)c3c4cc5c(cc4ccc23)OCO5)c1OC` [compound 8, Chelerythrine] was tested. Which IC50 did it give?
The IC50 was over 1800 µM.

For `COc1cc(O)c2c(c1)C(=O)c1cc(C)cc(O)c1C2=O` [compound 9, Physcion], which IC50 is on record?
The IC50 was over 1800 µM.

same assay, conditions: PBS pH 7.4, 0.1% DMSO, 4 °C, 5 h; immobilized nNOS; inhibition of PSD95-nNOS coupling, binding chain not told

How did the IC50 turn out when `Oc1cc(O)cc(/C=C/c2c(O)cccc2O)c1` [compound 3, Gnetol] was run?
Its IC50 is 492 ± 63 µM.
